Where two headings read alike, the source gives them in different places.
Assays:
[1] = test system: ben-1 mutant (ECA882) C. elegans; assay: microbe, parasite or virus in culture; settings: Caenorhabditis elegans; for viability at 1 µM / viability at 2 µM / viability at 3.9 µM / viability at 15.6 µM / viability at 31.3 µM / viability at 62.5 µM / viability at 125 µM / viability at 250 µM / viability at 500 µM / viability at 1000 µM: read-out: C. elegans ben-1(e1880) development/viability
Procedure, shortened: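 L1 larvae (~2 worms/μL in M9) in liquid NGM with 2-fold concentrated E. coli HB101, compound at 1% DMSO, 6 days at 20 °C shaking 165 rpm. Well images scored as summed worm-associated pixels, normalized to DMSO controls; relative viability averaged over at least three biological replicates.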

[2] = test system: L1 wild-type C. elegans; assay: microbe, parasite or virus in culture; settings: Caenorhabditis elegans, read-out: C. elegans KCN Survival Assay LC50, estimated from fitted dose-response curves; mean of at least two biological replicates
[3] = in vitro; settings: human; for viability at 2 days, 3.13 µM / viability at 2 days, 6.25 µM / viability at 2 days, 12.5 µM / viability at 2 days, 25 µM / viability at 2 days, 50 µM / viability at 2 days, 100 µM: HEK293 cells (Flp-In-293)
[4] = test system: L1 wild-type C. elegans; settings: for Screen "Hit": 50 μM
[5] = read-out: C. elegans (ben-1) Development & Viability Assay LC50
[6] = read-out: C. elegans ben-1 log10 LC50 (converted)
[7] = HEK293 Cell Viability Assay LC50, HEK293 cells, estimated from fitted dose-response curves, mean of at least two biological replicates
[8] = KCN survival assay, hit = relative motility below 0.25
[9] = Dose 0.2 µM, mean of at least three biological replicates
[10] = read-out: C. elegans ben-1 LC50
[11] = hit = relative motility below 0.25 3 hours after removal of KCN

Compound	LC50 [1, 5] [µM]	viability at 15.6 µM [1] [%]	viability at 31.3 µM [1] [%]	viability at 62.5 µM [1] [%]	viability at 125 µM [1] [%]	viability at 250 µM [1] [%]	LC50 [1, 6] [µM]	LC50 [2] [µM]	viability at 2 days, 3.13 µM ([3]; HEK293 viability) [%]	viability at 2 days, 6.25 µM ([3]; HEK293 viability) [%]	viability at 2 days, 12.5 µM ([3]; HEK293 viability) [%]	viability at 2 days, 25 µM ([3]; HEK293 viability) [%]	viability at 2 days, 100 µM ([3]; HEK293 viability) [%]	C. elegans KCN Survival [4, 9]	C. elegans KCN Survival ([4]; Dose 0.39 µM)	C. elegans KCN Survival ([4]; Dose 1.56 µM)	C. elegans KCN Survival ([4]; Dose 3.13 µM)	C. elegans KCN Survival ([4]; Dose 6.25 µM)	C. elegans KCN Survival ([4]; Dose 12.5 µM)	C. elegans KCN Survival ([4]; Dose 25 µM)	other results
Cc1nc2ccccc2n1Cc1ccc(Cl)c(Cl)c1 [Compound 5655567]	85.3	100	99.5	84.2	10.6	16.7	85.3	8.26	100	100	100	88.9	15.5	0.934	0.972	0.973	0.953	0.756	0.219	0.111	viability at 1 µM [1]: 99.9%; viability at 2 µM [1]: 97.1%; viability at 3.9 µM [1]: 100%; CC50 at 2 days [3, 7]: 64.5 µM; viability at 2 days, 50 µM ([3]; HEK293 viability, Dose 50 µM): 72.1%; Screen "Hit" [4, 8]: Y (hits were identified as compounds that reduced relative motility below 0.25 (75% reduction)); C. elegans KCN Survival ([4]; Dose 50 µM): 0.120; C. elegans KCN Survival ([4]; Dose 100 µM): 0.176
Cc1ccc(SCCCCn2cnc3ccccc32)cc1 [Compound 7925333]	227	90.4	93.2	77.8	80.7	53.9	227	7.76	88.6	97	99.2	100	25.7	0.989	1.001	0.933	0.876	0.745	0.174	0.119	viability at 1 µM [1]: 92%; viability at 2 µM [1]: 100%; viability at 3.9 µM [1]: 98%; viability at 500 µM [1]: 3.6%; viability at 1000 µM [1]: 1%; CC50 at 2 days [3, 7]: 75.1 µM; viability at 2 days, 50 µM ([3]; HEK293 viability, Dose 50 µM): 77.2%; Screen "Hit" [4, 8]: Y (hits were identified as compounds that reduced relative motility below 0.25 (75% reduction)); C. elegans KCN Survival ([4]; Dose 50 µM): 0.151; C. elegans KCN Survival ([4]; Dose 100 µM): 0.185
Cc1ccc(OCCn2cnc3ccccc32)cc1 [Compound 5671538]	> 1000	100	100	100	100	100	> 500	28.3	92.2	98.5	97.1	96.2	61.4	0.927	0.931	0.891	0.844	0.828	0.784	0.550	viability at 500 µM [1]: 100%; viability at 1000 µM [1]: 100%; LC50 [1, 10]: > 500 µM; CC50 at 2 days ([3]; HEK293 Cell Viability Assay LC50, HEK293 cells, estimated from fitted dose-response curves): > 100 µM; viability at 2 days, 50 µM ([3]; HEK293 viability, Dose 50 µM): 96.4%; Screen "Hit" [4, 11]: Y (hits were identified as compounds that reduced relative motility below 0.25 (75% reduction)); C. elegans KCN Survival ([4]; Dose 50 µM): 0.033; C. elegans KCN Survival ([4]; Dose 100 µM): 0.00256
Brc1ccc(Cn2cnc3ccccc32)cc1 [Compound 5542661]	41.4	–	–	–	–	–	41.4	7.75	–	–	–	–	–	–	–	–	–	–	–	–	CC50 at 2 days [3]: > 100 µM; Screen "Hit" [4, 8]: Y (hits were identified as compounds that reduced relative motility below 0.25 (75% reduction))
FC(F)(F)c1cccc(OCCCCn2cnc3ccccc32)c1 [Compound 7925004]	47.3	76.5	75.3	28	3.4	2.3	47.3	13.9	99.3	99.5	100	61.3	6.8	1.053	1.068	1.004	1.026	0.948	0.632	0.094	viability at 1 µM [1]: 93.7%; viability at 2 µM [1]: 95.4%; viability at 3.9 µM [1]: 96.9%; viability at 500 µM [1]: 2.6%; viability at 1000 µM [1]: 1.1%; CC50 at 2 days [3]: 29.2 µM; viability at 2 days, 50 µM ([3]; HEK293 viability, Dose 50 µM): 16.2%; Screen "Hit" [4, 8]: Y (hits were identified as compounds that reduced relative motility below 0.25 (75% reduction)); C. elegans KCN Survival ([4]; Dose 50 µM): 0.092; C. elegans KCN Survival ([4]; Dose 100 µM): 0.126
Cc1ccc(OCCn2cnc3ccccc32)c(C)c1 [Compound 7706808]	> 1000	98.9	97.3	93.8	89.7	94.6	> 500	12	100	100	100	100	36.2	0.957	1.031	1.000	0.998	0.894	0.483	0.132	viability at 1 µM [1]: 100%; viability at 2 µM [1]: 96.2%; viability at 3.9 µM [1]: 97%; viability at 500 µM [1]: 76.7%; viability at 1000 µM [1]: 69.9%; LC50 [1, 10]: > 500 µM; CC50 at 2 days [3]: 89.1 µM; viability ([3]; HEK293 viability, Dose 50 µM): 94.6%; Screen "Hit" [4, 11]: Y (hits were identified as compounds that reduced relative motility below 0.25 (75% reduction)); C. elegans KCN Survival ([4]; Dose 50 µM): 0.135; C. elegans KCN Survival ([4]; Dose 100 µM): 0.199
Clc1ccc(SCCCCn2cnc3ccccc32)cc1 [Compound 7925515]	40.8	84.7	65.4	25	5	3.7	40.8	6.74	83.6	92.4	94.2	96.8	12.7	0.966	1.005	0.967	0.917	0.704	0.109	0.129	viability at 1 µM [1]: 92.2%; viability at 2 µM [1]: 97%; viability at 3.9 µM [1]: 94.8%; viability at 500 µM [1]: 3.1%; viability at 1000 µM [1]: 1%; CC50 at 2 days [3, 7]: 57.3 µM; viability at 2 days, 50 µM ([3]; HEK293 viability, Dose 50 µM): 55.5%; Screen "Hit" [4, 8]: Y (hits were identified as compounds that reduced relative motility below 0.25 (75% reduction)); C. elegans KCN Survival ([4]; Dose 50 µM): 0.146; C. elegans KCN Survival ([4]; Dose 100 µM): 0.182
Cc1ccc(SCCCn2cnc3ccccc32)cc1 [Compound 7926035]	69.8	91.5	76.7	57.7	5.4	2.6	69.8	4.71	90.8	96.6	98.4	97.6	30.4	0.990	0.961	0.929	0.707	0.388	0.123	0.118	viability at 1 µM [1]: 94.4%; viability at 2 µM [1]: 87.2%; viability at 3.9 µM [1]: 86.3%; viability at 500 µM [1]: 3.4%; viability at 1000 µM [1]: 5.6%; CC50 at 2 days [3, 7]: 71.4 µM; viability at 2 days, 50 µM ([3]; HEK293 viability, Dose 50 µM): 65.6%; Screen "Hit" [4, 11]: Y (hits were identified as compounds that reduced relative motility below 0.25 (75% reduction)); C. elegans KCN Survival ([4]; Dose 50 µM): 0.139; C. elegans KCN Survival ([4]; Dose 100 µM): 0.184
